Like-named read-outs stand apart in the source and are kept apart here.
Columns and labels:
[1] = target: human PDE2A1 (Homo sapiens (Human), UniProt O00408); assay: PDE2 IMAP FP inhibition assay, human PDE2A1 (selectivity panel format); type: biochemical
Method in brief: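 IMAP fluorescence polarization assay; substrate 50 nM FAM-cAMP with 1000 nM cGMP, enzyme at ~20% conversion, in 10 mM Tris pH 7.2, 10 mM MgCl2, 1 mM DTT, 0.01% Tween-20. 60 min room temperature, stopped with IMAP binding reagent, 1 h, then parallel/perpendicular fluorescence read.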

[2] = target: P-glycoprotein (P-gp) (Homo sapiens (Human), UniProt P08183); assay: P-gp transport, experimental BA/AB ratio, human; type: in vitro ADME; conditions: LLC-PK1, 1 μM substrate concentration
From the text: (§1) See Doan et al. “Passive permeability and P-glycoprotein-mediated efflux differentiate central nervous system (CNS) and non-CNS marketed drugs”, J. Pharm. Exper. […] Desirable human BA/AB ratio is less than 2.0. […] See, for example, Desai, et al. Integration of in Silico and in Vitro Tools for Scaffold Optimization during Drug Discovery: Predicting P-glycoprotein Efflux” Mol. Pharmac.

[3] = target: P-glycoprotein (P-gp, rat Mdr1a) (Rattus norvegicus, UniProt Q6PSM0); assay: P-gp transport, experimental BA/AB ratio, rat LLC-Mdr1a; type: in vitro ADME; conditions: LLC-PK1; rat LLC-Mdrla; 1 μM substrate concentration
From the text: as §1

[4] = target: Rhesus PDE2A3 (Macaca mulatta, UniProt B3VTJ2); assay: PDE2 fluorescence polarization (IMAP FP) inhibition assay, rhesus PDE2A3; type: biochemical, rhesus macaque
Description: A Labcyte Echo 555 (Labcyte, Sunnyvale, Calif.) is used to dispense 200 nL from each well of the titration plate to the 384 well assay plate. Ten microliters of a solution of enzyme (1/2000 final dilution from aliquots; sufficient to produce 20% substrate conversion) was added to the assay plate. Next 10 uL of a separate solution of the substrate FAM-labeled cAMP (50 nM final concentration product # R^7506 from Molecular Devices) and the activator cGMP (1 uM final concentration), prepared in the assay buffer (10 mM Tris HCl, pH 7.2, 10 mM MgCl2, 0.05% NaN3 0.01% Tween-20, and 1 mM DTT) was added to the assay plate and shaken to mix. The reaction is allowed to proceed at room temperature for 60 minutes. A binding solution is then made from the kit components, comprised of 80% Solution A, 20% Solution B and binding reagent at a volume of 1/600 the total binding solution. The enzymatic reaction is stopped by addition of 60 μL of the binding solution to each well of the assay plates and the plates are sealed and shaken for 30 seconds. The plate was incubated at room temperature for at least one hour prior to determining the fluorescence polarization (FP). The parallel and perpendicular fluorescence of each well of the plate was measured using a Tecan Genios Pro plate reader (Tecan, Switzerland) or Perkin Elmer EnVision™ plate reader (Waltham, Mass.). Fluorescence polarization (mP) was calculated from the parallel (S) and perpendicular (P) fluorescence of each sample well and the analogous values for the median control well, containing only substrate (So and Po), using the following equation: Polarization (mP)=1000*(S/So−P/Po)/(S/So+P/Po).
Dose-inhibition profiles for each compound were characterized by fitting the mP data to a four-parameter equation given below.
An apparent (KM) for FAM-labeled cAMP of ˜10 uM was used.

[5] = Lab B, read-out: Human PDE2 Ki (nM) - Lab B
[6] = Lab B, read-out: Rhesus PDE2 Ki (nM) - Lab B
[7] = Lab A, read-out: Rhesus PDE2 Ki (nM) - Lab A
[8] = Lab A, read-out: Human PDE2 Ki (nM) - Lab A

P-glycoprotein (P-gp, rat Mdr1a), sequence (Q6PSM0 1-1272): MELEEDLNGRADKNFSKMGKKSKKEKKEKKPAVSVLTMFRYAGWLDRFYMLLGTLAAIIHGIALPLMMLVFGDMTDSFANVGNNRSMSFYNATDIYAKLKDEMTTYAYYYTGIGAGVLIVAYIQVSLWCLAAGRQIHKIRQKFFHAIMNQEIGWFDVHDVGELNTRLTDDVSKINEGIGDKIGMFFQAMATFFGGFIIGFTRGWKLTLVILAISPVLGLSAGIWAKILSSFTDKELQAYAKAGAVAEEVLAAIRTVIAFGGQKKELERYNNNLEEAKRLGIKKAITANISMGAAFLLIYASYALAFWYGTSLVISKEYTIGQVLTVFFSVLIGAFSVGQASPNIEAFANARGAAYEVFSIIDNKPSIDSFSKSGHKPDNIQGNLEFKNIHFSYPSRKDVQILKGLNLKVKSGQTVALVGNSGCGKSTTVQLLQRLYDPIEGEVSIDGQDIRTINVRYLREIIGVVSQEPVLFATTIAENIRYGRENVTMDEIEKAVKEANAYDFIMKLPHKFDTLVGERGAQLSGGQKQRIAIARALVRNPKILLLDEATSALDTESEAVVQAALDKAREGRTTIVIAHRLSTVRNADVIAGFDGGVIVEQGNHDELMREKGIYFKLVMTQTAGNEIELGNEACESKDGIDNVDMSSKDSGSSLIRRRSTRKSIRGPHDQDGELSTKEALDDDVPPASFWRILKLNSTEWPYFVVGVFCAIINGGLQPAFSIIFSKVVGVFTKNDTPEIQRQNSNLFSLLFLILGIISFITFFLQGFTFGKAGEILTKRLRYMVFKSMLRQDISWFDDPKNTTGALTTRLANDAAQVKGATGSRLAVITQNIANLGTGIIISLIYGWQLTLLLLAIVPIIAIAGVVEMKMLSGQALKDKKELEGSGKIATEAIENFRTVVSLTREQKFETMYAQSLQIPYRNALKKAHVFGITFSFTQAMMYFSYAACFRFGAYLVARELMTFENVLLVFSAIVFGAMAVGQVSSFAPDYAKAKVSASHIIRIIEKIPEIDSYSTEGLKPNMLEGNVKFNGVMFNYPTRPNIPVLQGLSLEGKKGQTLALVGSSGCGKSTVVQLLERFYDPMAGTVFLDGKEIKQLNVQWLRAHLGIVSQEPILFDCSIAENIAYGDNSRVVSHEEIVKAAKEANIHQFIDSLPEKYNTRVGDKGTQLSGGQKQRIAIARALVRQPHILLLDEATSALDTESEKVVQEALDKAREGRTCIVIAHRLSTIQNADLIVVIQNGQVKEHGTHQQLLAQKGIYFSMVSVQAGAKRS
Rhesus PDE2A3, sequence (B3VTJ2 1-941): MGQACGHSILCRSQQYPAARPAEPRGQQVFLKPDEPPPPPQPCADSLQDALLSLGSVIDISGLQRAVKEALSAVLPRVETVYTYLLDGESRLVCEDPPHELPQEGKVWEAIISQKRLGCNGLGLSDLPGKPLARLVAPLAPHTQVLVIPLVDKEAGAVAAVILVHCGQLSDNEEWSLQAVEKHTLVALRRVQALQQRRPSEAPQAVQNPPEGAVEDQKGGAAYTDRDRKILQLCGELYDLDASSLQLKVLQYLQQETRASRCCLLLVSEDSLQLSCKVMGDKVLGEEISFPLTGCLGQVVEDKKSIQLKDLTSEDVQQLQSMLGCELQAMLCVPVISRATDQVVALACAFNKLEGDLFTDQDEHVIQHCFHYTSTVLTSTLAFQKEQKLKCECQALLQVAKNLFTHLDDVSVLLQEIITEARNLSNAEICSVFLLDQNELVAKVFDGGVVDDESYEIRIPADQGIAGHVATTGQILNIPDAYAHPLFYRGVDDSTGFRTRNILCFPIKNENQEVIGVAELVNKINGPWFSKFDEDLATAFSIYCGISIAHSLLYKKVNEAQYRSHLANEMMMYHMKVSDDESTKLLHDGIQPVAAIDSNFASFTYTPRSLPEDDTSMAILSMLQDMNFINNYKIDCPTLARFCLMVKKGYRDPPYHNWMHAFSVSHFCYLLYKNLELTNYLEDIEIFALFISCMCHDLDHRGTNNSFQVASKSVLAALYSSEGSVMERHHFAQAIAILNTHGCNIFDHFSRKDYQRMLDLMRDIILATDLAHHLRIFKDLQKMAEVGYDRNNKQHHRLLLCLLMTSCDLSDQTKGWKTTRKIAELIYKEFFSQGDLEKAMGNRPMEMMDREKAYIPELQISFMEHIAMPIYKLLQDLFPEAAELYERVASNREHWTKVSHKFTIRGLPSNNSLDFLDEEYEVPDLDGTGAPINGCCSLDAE
human PDE2A1, sequence (O00408 other isoform, or with tags, fused parts or gaps): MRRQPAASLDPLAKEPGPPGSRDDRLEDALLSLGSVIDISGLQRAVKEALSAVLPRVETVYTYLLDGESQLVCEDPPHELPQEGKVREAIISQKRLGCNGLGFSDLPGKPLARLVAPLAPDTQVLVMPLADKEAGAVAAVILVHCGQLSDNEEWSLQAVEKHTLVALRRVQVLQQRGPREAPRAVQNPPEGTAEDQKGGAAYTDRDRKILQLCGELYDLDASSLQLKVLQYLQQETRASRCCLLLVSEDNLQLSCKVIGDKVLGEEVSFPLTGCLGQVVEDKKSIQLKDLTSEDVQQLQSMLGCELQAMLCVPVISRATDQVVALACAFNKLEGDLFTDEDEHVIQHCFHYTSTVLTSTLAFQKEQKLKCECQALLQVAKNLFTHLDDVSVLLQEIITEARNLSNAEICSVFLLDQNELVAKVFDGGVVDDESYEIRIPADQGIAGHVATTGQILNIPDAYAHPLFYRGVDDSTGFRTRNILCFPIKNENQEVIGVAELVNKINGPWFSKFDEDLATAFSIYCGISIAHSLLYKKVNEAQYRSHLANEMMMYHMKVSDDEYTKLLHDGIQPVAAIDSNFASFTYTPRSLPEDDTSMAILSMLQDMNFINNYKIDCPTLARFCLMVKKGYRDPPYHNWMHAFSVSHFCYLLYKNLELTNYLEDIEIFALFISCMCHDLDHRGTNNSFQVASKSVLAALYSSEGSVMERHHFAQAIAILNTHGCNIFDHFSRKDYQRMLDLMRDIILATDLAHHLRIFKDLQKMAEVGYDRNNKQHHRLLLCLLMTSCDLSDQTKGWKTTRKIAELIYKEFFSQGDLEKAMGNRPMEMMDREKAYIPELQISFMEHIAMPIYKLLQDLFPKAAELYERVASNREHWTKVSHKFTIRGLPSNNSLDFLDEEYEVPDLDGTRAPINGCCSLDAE
P-glycoprotein (P-gp), sequence (P08183 whole entry): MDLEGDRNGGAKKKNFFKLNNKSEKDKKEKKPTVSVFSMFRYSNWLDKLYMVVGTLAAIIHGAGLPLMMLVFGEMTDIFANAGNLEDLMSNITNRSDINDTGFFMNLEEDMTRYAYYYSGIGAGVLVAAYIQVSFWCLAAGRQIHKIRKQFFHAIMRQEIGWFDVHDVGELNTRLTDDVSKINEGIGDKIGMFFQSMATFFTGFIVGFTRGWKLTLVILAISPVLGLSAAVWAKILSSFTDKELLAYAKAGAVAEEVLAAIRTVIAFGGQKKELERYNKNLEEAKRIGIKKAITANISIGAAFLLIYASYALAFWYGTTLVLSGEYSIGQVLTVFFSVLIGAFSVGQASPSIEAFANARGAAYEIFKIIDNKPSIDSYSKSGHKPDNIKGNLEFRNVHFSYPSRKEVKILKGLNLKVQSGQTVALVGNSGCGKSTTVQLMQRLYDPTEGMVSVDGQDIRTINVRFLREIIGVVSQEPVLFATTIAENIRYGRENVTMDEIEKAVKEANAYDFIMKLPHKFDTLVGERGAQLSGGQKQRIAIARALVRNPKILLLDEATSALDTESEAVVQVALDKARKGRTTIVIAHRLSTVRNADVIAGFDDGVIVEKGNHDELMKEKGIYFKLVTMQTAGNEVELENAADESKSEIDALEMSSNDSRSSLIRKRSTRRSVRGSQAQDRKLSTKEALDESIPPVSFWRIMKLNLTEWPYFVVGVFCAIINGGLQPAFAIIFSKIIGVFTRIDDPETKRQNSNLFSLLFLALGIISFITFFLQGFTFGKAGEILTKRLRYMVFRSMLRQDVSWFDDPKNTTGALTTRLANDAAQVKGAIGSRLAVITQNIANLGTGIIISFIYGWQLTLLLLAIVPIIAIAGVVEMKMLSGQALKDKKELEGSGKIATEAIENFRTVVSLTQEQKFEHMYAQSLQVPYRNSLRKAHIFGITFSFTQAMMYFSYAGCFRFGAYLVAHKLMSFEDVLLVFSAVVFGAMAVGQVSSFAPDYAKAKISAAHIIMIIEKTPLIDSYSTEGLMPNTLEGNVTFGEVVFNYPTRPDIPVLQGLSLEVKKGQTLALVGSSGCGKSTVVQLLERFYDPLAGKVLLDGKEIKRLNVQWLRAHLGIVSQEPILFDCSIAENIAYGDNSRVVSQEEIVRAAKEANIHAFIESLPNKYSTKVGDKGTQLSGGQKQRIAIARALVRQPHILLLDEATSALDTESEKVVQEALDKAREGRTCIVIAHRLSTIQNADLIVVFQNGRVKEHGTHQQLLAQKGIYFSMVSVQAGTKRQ

| Compound | Ki [1, 5] [nM] | efflux ratio at 1 μM [2] | efflux ratio at 1 μM [3] | Ki [4, 6] [nM] | Ki ([4]; Rhesus PDE2 Ki (nM) - Lab B, Lab B) [nM] | Ki [4, 7] [nM] | Ki [1, 8] [nM] |
| --- | --- | --- | --- | --- | --- | --- | --- |
| CN(C)c1nc(C(=O)N[C@@H](c2ccc(C(F)F)cc2)C2CC2)cc(=O)[nH]1 [Example 64, N-{(R)-cyclopropyl[4-(difluoromethyl)phenyl]methyl}-2-(dimethylamino)-6-oxo-1,6-dihydropyrimidine-4-carboxamide] | 7.4 | 0.8 | 5.6 |  |  |  |  |
| CO[C@H]1CCN(c2nc(C(=O)N[C@@H](c3ccc(C(F)(F)F)cc3)C(C)(C)C)cc(=O)[nH]2)C1 [Example 170, N-{(1R)-2,2-dimethyl-1-[4-(trifluoromethyl)phenyl]propyl}-2-[(3S)-3-methoxypyrrolidin-1-yl]-6-oxo-1,6-dihydropyrimidine-4-carboxamide] | 0.11 | 5.6 | 10.7 |  |  |  |  |
| COCC1CCN(c2nc(C(=O)N[C@@H](c3ccc(C(F)(F)F)cc3)C(C)(C)C)cc(=O)[nH]2)C1 (single isomer, unassigned) [Example 176, (R)- or (S)-N-{(1R)-2,2-dimethyl-1-[4-(trifluoromethyl)phenyl]propyl}-2-[3-(methoxy-methyl)pyrrolidin-1-yl]-6-oxo-1,6-dihydro-pyrimidine-4-carboxamide] | 0.38 | 5.4 | 19.1 |  |  |  |  |
| CC(C)[C@@H](NC(=O)c1cc(=O)[nH]c(N(C)C)n1)c1ccc(OC(F)F)cc1 [Example 33, N-{(1R)-1-[4-(difluoromethoxy)phenyl]-2-methylpropyl}-2-(dimethylamino)-6-oxo-1,6-dihydropyrimidine-4-carboxamide] | 2 | 1.3 |  | 2.7 |  |  |  |
| CNc1nc(C(=O)N[C@@H](c2ccc(C(F)(F)F)cc2)C(C)(C)C)cc(=O)[nH]1 [Example 158, N-{(1R)-2,2-dimethyl-1-[4-(trifluoromethyl)phenyl]propyl}-2-(methylamino)-6-oxo-1,6-dihydropyrimidine-4-carboxamide] | 0.85 | 7.8 | 24.4 |  |  |  |  |
| CN(C)c1nc(C(=O)N[C@@H](c2ccc(OC(F)F)cc2)C2CC2)cc(=O)[nH]1 [Example 32, N-{(R)-cyclopropyl[4-(difluoromethoxy)phenyl]methyl}-2-(dimethylamino)-6-oxo-1,6-dropyrimidine-4-carboxamide] | 5.3 | 1.1 |  | 6.4 |  |  |  |
| CN(C)c1nc(C(=O)N[C@@H](c2ccc(C(F)F)c(F)c2)C2CC2)cc(=O)[nH]1 [Example 66, N-{(R)-cyclopropyl[4-(difluoromethyl)-3-fluorophenyl]methyl}-2-(dimethylamino)-6-oxo-1,6-dihydropyrimidine-4-carboxamide] | 5 | 0.8 | 6.1 |  |  |  |  |
| CN(C)c1nc(C(=O)N[C@@H](c2ccc(S(F)(F)(F)(F)F)cc2)C(C)(C)C)cc(=O)[nH]1 [Example 38, 2-(dimethylamino)-N-{(1R)-2,2-dimethyl-1-[4-(pentafluoro-λ^6-sulfanyl)phenyl]propyl}-6-oxo-1,6-dihydropyrimidine-4-carboxamide] | 0.14 | 1 |  | 0.11 |  |  |  |
| CO[C@@H]1CCN(c2nc(C(=O)N[C@@H](c3ccc(C(F)(F)F)cc3)C(C)(C)C)cc(=O)[nH]2)C1 [Example 171, N-{(1R)-2,2-dimethyl-1-[4-(trifluoromethyl)phenyl]propyl}-2-[(3R)-3-methoxypyrrolidin-1-yl]-6-oxo-1,6-dihydropyrimidine-4-carboxamide] | 1.4 | 3.1 | 24.4 |  |  |  |  |
| C[C@@H](NC(=O)c1cc(=O)[nH]c(N(C)C)n1)c1cc(F)c(C(F)(F)F)cc1F [Example 36, N-{(1R)-1-[2,5-difluoro-4-(trifluoromethyl)phenyl]ethyl}-2-(dimethylamino)-6-oxo-1,6-dihydropyrimidine-4-carboxamide] | 7.7 |  |  | 4.9 |  |  |  |
| COCC1CCN(c2nc(C(=O)N[C@@H](c3ccc(C(F)(F)F)cc3)C(C)(C)C)cc(=O)[nH]2)C1 (stereo partly drawn) [Example 14, N—((R)-2,2-dimethyl-1-(4-(trifluoromethyl)phen)propyl)-2-(3-(methoxymethyl)pyrrolidin-1-yl)-6-oxo-1,6-dihydropyrimidine-4-carboxamide] | 0.34 |  |  |  | 0.41 |  |  |
| COc1ccc(Oc2nc(C(=O)N[C@H](C)c3ccc(C(F)(F)F)cc3)cc(=O)[nH]2)cc1OC [Example 22, (R)-2-(3,4-dimethoxyphenoxy)-6-oxo-N-(1-(4-(trifluoromethyl)phenyl)ethyl)-1,6-dihydropyrimidine-4-carboxamide] |  |  |  |  |  | 727 | 988 |
| CC(C)C(C)(NC(=O)c1cc(=O)[nH]c(N(C)C)n1)c1ccc(S(F)(F)(F)(F)F)cc1 (centres unmarked) [Example 39, 2-(dimethylamino)-N-{1,2-dimethyl-1-[4-(pentafluoro-λ^6-sulfanyl)phenyl]propyl}-6-oxo-1,6-dihydropyrimidine-4-carboxamide] | 12 |  |  | 8.7 |  |  |  |
| C[C@@H](NC(=O)c1cc(=O)[nH]c(N)n1)c1ccc(C(F)(F)F)cc1 [Example 134, 2-amino-6-oxo-N-{(1R)-1-[4-(trifluoromethyl)phenyl]ethyl}-1,6-dihydropyrimidine-4-carboxamide] |  |  |  |  |  | 272 | 144 |
| CN(C)c1nc(C(=O)N[C@@H](c2ccc(OC(F)(F)F)c(Cl)c2)C2CC2)cc(=O)[nH]1 [Example 85, N-[(R)-[3-chloro-4-(trifluoromethoxy)phenyl](cyclopropyl)methyl]-2-(dimethylamino)-6-oxo-1,6-dihydropyrimidine-4-carboxamide] | 3.6 |  |  | 4.9 |  | 2 |  |
| CC(C)[C@@H](NC(=O)c1cc(=O)[nH]c(N(C)C)n1)c1ccc(OC(F)(F)F)c(F)c1 [Example 149, 2-(dimethylamino)-N-{(1R)-1-[3-fluoro-4-(trifluoro-methoxy)phenyl]-2-methylpropyl}-6-oxo-1,6-dihydropyrimidine-4-carboxamide] | 0.42 |  |  | 0.51 |  | 0.48 |  |
| CN(C)c1nc(C(=O)N[C@@H](c2ccc(C(F)F)c(F)c2)C2(C)CC2)cc(=O)[nH]1 [Example 59, N-[(R)-[4-(difluoromethyl)-3-fluorophenyl](1-methylcyclopropyl)methyl]-2-(dimethylamino)-6-oxo-1,6-dihydropyrimidine-4-carboxamide] | 2 | 0.8 | 4.2 |  |  |  |  |
| CN(C)c1nc(C(=O)NC(C)(C)c2ccc(C(F)(F)F)cc2F)cc(=O)[nH]1 [Example 82, 2-(dimethylamino)-N-{1-[2-fluoro-4-(trifluoromethyl)phenyl]-1-methylethyl}-6-oxo-1,6-dihydropyrimidine-4-carboxamide] | 2.5 |  |  | 2 |  |  |  |
| CN(C)c1nc(C(=O)N[C@@H](c2ccc(C3CC3)cc2)C2CC2)cc(=O)[nH]1 [Example 115, N-[(R)-cyclopropyl(4-cyclopropylphenyl)methyl]-2-(dimethylamino)-6-oxo-1,6-dihydropyrimidine-4-carboxamide] | 0.76 | 0.3 |  | 1 |  |  |  |
| C[C@@H](NC(=O)c1cc(=O)[nH]c(N(C)C)n1)c1ccc(OC(F)(F)F)c(Cl)c1 [Example 3, (R)—N-(1-(3-chloro-4-(trifluoromethoxy)phenyl)ethyl)-2-(dimethylamino)-6-oxo-1,6-dihydropyrimidine-4-carboxamide] | 1.6 |  |  | 1.5 |  | 0.82 |  |
| C[C@@H](NC(=O)c1cc(=O)[nH]c(N2CCCC2)n1)c1ccc(OC(F)(F)F)cc1 [Example 28, 6-oxo-2-pyrrolidin-1-yl-N-{(1R)-1-[4-(trifluoromethoxy)phenyl]ethyl}-1,6-dihydropyrimidine-4-carboxamide] |  |  |  |  |  | 1.3 | 0.45 |

— US10285989B2, “Pyrimidinone amide compounds as PDE2 inhibitors” (Merck Sharp & Dohme Corp., priority 2015, dated 2019)
